Measurements: patent US8592394B2, “Synthetic derivatives beta glycolipids and compositions thereof for the treatment of pathologic disorders” (Enzo Therapeutics, Inc., priority 2003, dated 2013)

What was measured:
B6 splenocytes = test: In vitro stimulation of splenocytes: [3H] thymidine incorporation (proliferation); format: cell-based, mouse; settings: 72-h cultures, graded amounts
Procedure: (§1) Splenocytes were prepared as described above and plated at 2.0×10^5 cells per well in 96-well plates in RPMI-1640 supplemented with 5% FCS, […] 2-mercaptoethanol, 2 mM glutamine, 1% sodium pyruvate, and antibiotics. Titrated volumes of GC, α-GalCer, and ALIB-97 diluted in DMSO were added at final concentrations of 100 ng, 1 μg, and 10 μg/ml. After 72 h of culture, 1 μCi of [^3H] thymidine (Amersham Biosciences) was added to each well, and the cells were cultured for an additional 16 to 18 h. Cells were harvested with a cell harvester (Tomtec, Orange, Conn.), and the uptake of radioactivity was measured with a β-plate reader. To evaluate IFN-γ secretion in vitro, supernatants were harvested after 90 h of culture with glycolipids and stored until the cytokine levels were measured by ELISA.

liver = settings: mice, cited from earlier work
mouse splenocytes = test: In vitro stimulation of splenocytes: supernatant IFN-γ by ELISA; format: cell-based; settings: CD1d−/− splenocytes
Procedure: as §1

JNK2 = test: Western blot of liver extracts of ob/ob mice: JNK2 activation; format: in vivo; settings: per os daily 4 weeks, 45 μg (group C)
Procedure: (§2) For analysis of whole tissue lysates, snap-frozen liver pieces were homogenized in 0.75 ml of ice-cold PBS and centrifuged at 4° C. for 5 min in 2000 rpm. Pellets were lysed with 50 mM beta glycerophosphate, 1.5 mM EGTA, PH 7.3, 1 mM EDTA, PH 7.3, 1 mM DTT, 0.1 mM Sodium vanadate, 1% NP-40, and cocktails of protease and phosphatase (Sigma, Rehovot, Israel).
(§3) Lysates were centrifuged twice at 4° C. for 10 minutes in 14000 rpm. Equivalent amounts of lysates (15 μg/lane), determined by Bradford assay (Bio-Rad, Rehovot, Israel), were separated by sodium dodecyl sulfate polyacrylamide gel electrophoresis (SDS-PAGE) and transferred to nitrocellulose membranes.
(§4) For metabolic syndrome experiments, proteins were detected with JNK-2, Phospho JNK (Thr183/Tyr185), Akt and phospho Akt (Ser 473) antibodies (Cell Signaling Technologies, MA). β-actin (abcam, UK) was used as the loading control.
(§5) Blots were developed with horseradish peroxidase-conjugated secondary antibodies (Jackson Laboratories Bar Harbor, Me.) and Western Blot-Luminol Reagent (Santa Cruz Biotechnology, CA, USA). Cell counting and western Blot quantification was performed using total Lab (Phoretix, USA) software.
(§6) Therefore, five groups of male C57BL/6 Ob/Ob mice were studied. […]

AKT = test: Western blot of liver extracts of ob/ob mice: AKT activation; format: in vivo; settings: per os daily 4 weeks, 45 μg (group C)
Procedure: as §2, §3, §4, §5, §6

fat-associated T cells = test: Flow cytometry of T cell subsets in adipose tissue, stromal vascular cells and spleen of ob/ob mice; format: in vivo; settings: 15 and 45 μg per os daily 4 weeks
Procedure: Splenocytes and intrahepatic lymphocytes were isolated as follows: livers and spleens were kept in RPMI-1640+FCS. Then spleens were crushed through a 70 μm nylon cell strainer (Falcon) and centrifuged (1250 rpm for 7 min) for the removal of cell debris. Red blood cells were lysed with 1 ml of cold 155 mM ammonium chloride lysis buffer and centrifuged (1250 rpm for 3 min). Splenocytes were resuspended with 1 ml RPMI+FCS. Cell viability by trypan blue staining was above 90%. For intrahepatic lymphocytes, livers were crushed through a stainless mesh (size 60, Sigma) and the cell suspension was placed in a 50-ml tube for 5 min. Lymphoprep (10 ml, Ficoll, Axis-Shield PoC AS, Oslo, Norway) was placed under similar volume of cell suspension in 50-ml tubes. Tubes were centrifuged at 1800 rpm for 18 min. Cells in the interface were collected and centrifuged at 1800 rpm for 10 min, to obtain a pellet of cells depleted of hepatocytes to a final volume of 250 μl. Approximately 1×10^6 cells/mouse liver, were recovered.
Adipose tissue (visceral fat pads) was minced and incubated in Krebs-Ringer bicarbonate buffer (3 mL/g adipose tissue) containing 10mM glucose and 2.5% bovine serum albumin, incubated with 840 U/g collagenase type I (Sigma, Rehovot, Israel)) at 37° C. for 1 hour. Cells were filtered twice through chiffon mesh (100 μm) and centrifuged 50 g for 5 min. Floating adipocytes were separated from pelleted S/V fraction. The infranatant fraction was removed and centrifuged at 200 g for five minutes to pellet the S/V cells.
For metabolic syndrome experiments, the following antibodies were used for flow cytometry: anti-CD4-Pacific Blue, anti-CD8-FITC, anti-IL-17-PE, anti CD25-PercP-Cy5.5 and anti FOX3p PE-Cy725 (all from eBioscience, San Diego, Calif.). Surface staining was performed by incubating cells with antibodies and anti-CD16/32 (blocks Fc, eBioscience) at 4° C. in FACS buffer containing PBS and 0.5% BSA, for 30 min. Cells were washed twice with FACS buffer, resuspended in FACS buffer, and analyzed by flow cytometry. Appropriate isotype controls were used in all experiments. Intracellular staining was performed using Foxp3 staining buffer kit (eBioscience, San Diego, Calif.). Cells were incubated with 1 ml Fixation/Permeabilization solution for 50 min, washed twice with Permeabilization buffer and incubated with anti-Foxp3 Ab for 50 min. Cells were then washed twice with Permeabilization buffer and resuspended with FACS buffer. Analysis was performed using a FACSCalibur instrument (Becton Dickinson, San Jose, Calif.) with FCS express V.3 software (DeNovo software, Los Angeles, Calif.).
(§7) Therefore, five groups of male C57BL/6 Ob/Ob mice were studied. Mice (6 per group) were fed (per os) daily for 4 weeks with 15 or 45 μg of GC (groups B and C, respectively) and 15 or 45 μg of ALIB-97 (groups D and E, respectively). Control mice (Group A) were administered vehicle only.

ob/ob mice [1] = test: Fasting glucose and glucose tolerance test in ob/ob mice; format: in vivo
Procedure: Mice underwent a glucose tolerance test (GTT) on day 30 after overnight fasting. Glucose was administered orally (1.25 g per kg). Serum glucose measurements were performed on tail-vein blood every 15 min for 3 h. Glucose levels were measured by a standard glucometer.
as §7

ob/ob mice [2] = test: Serum ALT and AST (hepatic injury) in ob/ob mice; format: in vivo; settings: day 30, 45 μg per os daily, vehicle group A 710
Procedure: The effect of β-glycolipids on liver injury was evaluated by serum aspartyl transaminase (AST) and alanine aminotransferase (ALT) activities, which were determined by a clinical chemistry analyzer, Reflovet Plus (Roche Diagnostics, GmbH, Mannheim, Germany).
as §7

[3] = humans, preliminary data; cited from earlier work

Molecule | cell proliferation ([3H] thymidine incorporation) (B6 splenocytes) | hepatotoxicity (liver) | IFN-γ secretion (mouse splenocytes) | activation of JNK2 (JNK2) [%] | increase of AKT activation (AKT) [%] | CD4+IL17+ / CD4+CD25+ ratio in adipose tissue (fat-associated T cells) | CD4IL17/CD4CD25FOXP3 ratio in the SVC (fat-associated T cells) | CD4IL17/CD4CD25FOXP3 ratio in the spleen (fat-associated T cells) | CD4IL17/CD4CD25 ratio in the spleen (fat-associated T cells) | ratio between CD4+IL17+ and CD4+CD25+FOXP3+ cells in adipose tissue (fat-associated T cells) | time at which the decrease in glucose levels (GTT, relative to time 0) reached statistical significance (ob/ob mice [1]; day 30, 15 μg per os daily) [min] | time at which the decrease in glucose levels (GTT, relative to time 0) reached statistical significance (ob/ob mice [1]; day 30, 45 μg per os daily) [min] | serum AST (ob/ob mice [2]) [u/L] | liver injury (liver; oral administration) | safety and biological activity [3]
CCCCCCCCCCCCCCCCCCCCCCCCCC(=O)N[C@@H](CO[C@H]1O[C@H](CO)[C@H](O)[C@H](O)[C@H]1O)[C@H](O)[C@H](O)CCCCCCCCCCCCCC [αGalCer, α-Galctosyl-ceramide] | induced | hepatotoxic |  |  |  |  |  |  |  |  |  |  |  |  | 
β-glucosylceramide [GC, reference compound] |  |  | capable of activating | 60 | 43 | reversal | reduction | reduction | reduction | dose dependent shift towards tolerance | 120 | 120 | 330 | not associated with liver injury | safe and biologically active
